Marks after values point to notes of the source that are not given here.
Experiments:
[1] = target: clade 2 H5N1 neuraminidase; conditions: cited from earlier work
[2] = tested on: A/Mississippi/03/01 H1N1 wild type neuraminidase
[3] = tested on: wild type viruses (neuraminidase)
[4] = tested on: H5N1 clade 1 A/Chicken/Vietnam/08/2004 neuraminidase; conditions: 37°C
[5] = tested on: H3N2 wild type neuraminidase; conditions: cited from earlier work
[6] = tested on: H5N1 clade 2 A/Chicken/Bangli/BBVD-563/2007 neuraminidase; conditions: 37°C
[7] = tested on: B/Perth/211/01 influenza B wild type neuraminidase
[8] = target: B/Perth/211/01 wild type neuraminidase; conditions: cited from earlier work
[9] = target: clade 1 H5N1 neuraminidase; conditions: cited from earlier work
[10] = tested on: human influenza A strains (neuraminidase)
[11] = tested on: A/Fukui/45/04 H3N2 wild type neuraminidase

SMILES | IC50 [1] | increase in IC50 from 10 to 60 min after addition of substrate in the preincubation reaction [1] | Time (T½) for reaction rates to reach half the maximum rate of the uninhibited control [2] | T½ (range over viruses) [3] | Time (T½) for reaction rates to reach half the maximum rate of the uninhibited control [4] | changes in IC50 from 10 to 60 min in the preincubation reaction [5] | Time (T½) for reaction rates to reach half the maximum rate of the uninhibited control [6] | Time (T½) for reaction rates to reach half the maximum rate of the uninhibited control [7] | IC50 [8] | IC50 [9] | increase in IC50 from 10 to 60 min after addition of substrate in the preincubation reaction [9] | T½ values [10] | Time (T½) for reaction rates to reach half the maximum rate of the uninhibited control [11]
CC(=O)N[C@H]1[C@H]([C@H](O)[C@H](O)CO)OC(C(=O)O)=C[C@@H]1N=C(N)N [Zanamivir] | 1.3 nM | 2.2 fold | 41.3 min | 0.467 to 1.82 h | 27.7^* min | 1.3 fold | 72.8^* min | 24.6^* min | 8.9 nM | 2.1 nM | 4.5 fold |  | 
CCC(CC)[C@H](NC(C)=O)[C@@H]1[C@H](O)[C@@H](C(=O)O)C[C@H]1N=C(N)N [Peramivir, peramivir] |  |  | >240^* min |  | 59.9 min |  | 84.4 min |  | 2.8 nM |  |  | > 4 h | >4 h
